# Results taken from patent US10112941B2, “Tricyclic compounds as anticancer agents” (BRISTOL-MYERS SQUIBB COMPANY, priority 2013, dated 2018).
# Biological target: BRD4 (Homo sapiens, UniProt O60885)
# Test: Time Resolved Fluorescence Resonance Energy Transfer (TR-FRET) binding assay, BRD4
# Conditions: one of the FRET assays described; read-out: FRET BRD4 IC50
row,Compound,IC50 [nM]
1,"[2H]C([2H])([2H])c1nnn(C)c1-c1cnc2c3c(F)cc(S(C)(=O)=O)cc3n(C(c3ncccc3F)C3CCC(F)(F)CC3)c2c1 (stereo not drawn) [Example 211, 2-[(4,4-Difluorocyclohexyl)({9-fluoro-7-methanesulfonyl-3-[4-(^2H3)methyl-1-methyl-1H-1,2,3-triazol-5-yl]-5H-pyrido[3,2-b]indol-5-yl})methyl]-3-fluoropyridine]",< 5
2,"Cc1nnn(C)c1-c1cnc2c3ccc(C(C)(C)NC(=O)CN(C)C)cc3n(C(c3ccccc3)C3CCOCC3)c2c1 (single isomer, unassigned) [Example 168, N-{2-[3-(Dimethyl-1H-1,2,3-triazol-5-yl)-5-[oxan-4-yl(phenyl)methyl]-5H-pyrido[3,2-b]indol-7-yl]propan-2-yl}-2-(dimethylamino)acetamide]",< 5
3,"COc1cc(C(C)(C)O)cc2c1c1ncc(-c3c(C)nnn3C)cc1n2C(c1ccccc1F)C1CCOCC1 (single isomer, unassigned) [Example 137, 2-[3-(Dimethyl-1H-1,2,3-triazol-5-yl)-5-[(2-fluorophenyl)(oxan-4-yl)methyl]-9-methoxy-5H-pyrido[3,2-b]indol-7-yl]propan-2-ol]",< 5
4,"Cc1nnn(C)c1-c1cnc2c3ccc(C(C)(O)C4CC4)c(F)c3n([C@H](c3ccccc3)C3CCOCC3)c2c1 (stereo partly drawn) [Example 416, 1-Cyclopropyl-1-{6-fluoro-3-[4-(^2H3)methyl-1-methyl-1H-1,2,3-triazol-5-yl]-5-[(S)-oxan-4-yl(phenyl)methyl]-5H-pyrido[3,2-b]indol-7-yl}ethan-1-ol]",< 5
5,"[2H]C([2H])([2H])c1nnn(C)c1-c1cnc2c3ccc(S(C)(=O)=O)cc3n(C(c3cc(C)on3)C3CCOCC3)c2c1 (stereo not drawn) [Example 331, 5-{7-Methanesulfonyl-5-[(5-methyl-1,2-oxazol-3-yl)(oxan-4-yl)methyl]-5H-pyrido[3,2-b]indol-3-yl}-4-(^2H3)methyl-1-methyl-1H-1,2,3-triazole]",< 5
6,"Cc1noc(C)c1-c1cnc2c3ccc(C(C)(C)O)cc3n(C(c3c(F)cc(F)cc3F)C3CCOCC3)c2c1 (single isomer, unassigned) [Example 128, 2-[3-(Dimethyl-1,2-oxazol-4-yl)-5-[oxan-4-yl(2,4,6-trifluorophenyl)methyl]-5H-pyrido[3,2-b]indol-7-yl]propan-2-ol]",< 25
7,"Cc1cc(C(C2CCOCC2)n2c3cc(C(C)(C)O)ccc3c3ncc(-c4c(C)nnn4C)cc32)n(C)n1 (single isomer, unassigned) [Example 342, 2-[3-(Dimethyl-1H-1,2,3-triazol-5-yl)-5-[(1,3-dimethyl-1H-pyrazol-5-yl)(oxan-4-yl)methyl]-5H-pyrido[3,2-b]indol-7-yl]propan-2-ol]",< 25
8,"[2H]C([2H])([2H])c1nnn(C)c1-c1cnc2c3c(OC)ccc(S(C)(=O)=O)c3n([C@H](c3ccc(F)cc3)C3CCOCC3)c2c1 [Example 191, 5-{5-[(S)-(4-Fluorophenyl)(oxan-4-yl)methyl]-6-methanesulfonyl-9-methoxy-5H-pyrido[3,2-b]indol-3-yl}-4-(^2H3)methyl-1-methyl-1H-1,2,3-triazole]",< 5
9,"Cc1noc(C)c1-c1cnc2c3ccc(C(O)CC#N)cc3n([C@H](c3ccccc3)C3CCOCC3)c2c1 (single isomer, unassigned) [Example 374]",< 5
10,Cc1nnn(C)c1-c1cnc2c3ccc(CS(C)(=O)=O)cc3n([C@@H](c3ncccc3Cl)C3CCOCC3)c2c1 [Example 340],< 5
11,"Cc1nnn(C)c1-c1cnc2c3ccc(C(C)(C)O)cc3n(C(c3cccnn3)C3CCOCC3)c2c1 (single isomer, unassigned) [Example 296]",< 5
12,"Cc1nocc1-c1cnc2c3ccc(C(C)(C)O)cc3n(C(c3ccc(F)cc3)C3CCOCC3)c2c1 (single isomer, unassigned) [Example 43, 2-{5-[(4-Fluorophenyl)(oxan-4-yl)methyl]-3-(3-methyl-1,2-oxazol-4-yl)-5H-pyrido[3,2-b]indol-7-yl}propan-2-ol]",< 1500
13,"Cn1nccc1-c1cnc2c3ccc(S(C)(=O)=O)cc3n([C@H](c3ccccc3)C3CCOCC3)c2c1 [Example 418, 5-{7-Methanesulfonyl-5-[(S)-oxan-4-yl(phenyl)methyl]-5H-pyrido[3,2-b]indol-3-yl}-1-methyl-1H-pyrazole]",< 25
14,"Cc1noc(C)c1-c1cnc2c3ccc(C(C)(C)O)c(F)c3n(C(c3ccc(F)cc3)C3CCOCC3)c2c1 (single isomer, unassigned) [Example 81, 2-[3-(Dimethyl-1,2-oxazol-4-yl)-6-fluoro-5-[(4-fluorophenyl)(oxan-4-yl)methyl]-5H-pyrido[3,2-b]indol-7-yl]propan-2-ol]",< 5
15,Cc1nnn(C)c1-c1cnc2c3ccc(C(C)(C)O)cc3n([C@@H](CCC(F)(F)F)c3ccccc3)c2c1 [Example 57],< 5
16,"[2H]C([2H])([2H])c1nnn(C)c1-c1cnc2c3ccc(C(C)(C)O)cc3n(C(c3ccc(F)cn3)C3CCOCC3)c2c1 (single isomer, unassigned) [Example 317]",< 5
17,Cc1nnn(C)c1-c1cnc2c3ccc(C(C)(C)O)cc3n([C@H](c3ccccc3F)C3CCOCC3)c2c1 [Example 64],< 5

row,Compound,IC50 [nM]
1,"[2H]C([2H])([2H])c1onc(C)c1-c1cnc2c3ccc(C(C)(C)O)cc3n(C([2H])(c3ccncc3F)C3CCOCC3)c2c1 (stereo not drawn) [Example 344, 2-{5-[(3-Fluoropyridin-4-yl)(oxan-4-yl)(^2H)methyl]-3-[5-(^2H3)methyl-3-methyl-1,2-oxazol-4-yl]-5H-pyrido[3,2-b]indol-7-yl}propan-2-ol]",< 5
2,"Cc1nnn(C)c1-c1cnc2c3c(F)cc(C(C)(C)O)cc3n(C(c3c(F)cc(F)cc3F)C3CCOCC3)c2c1 (single isomer, unassigned) [Example 105, 2-[3-(Dimethyl-1H-1,2,3-triazol-5-yl)-9-fluoro-5-[oxan-4-yl(2,4,6-trifluorophenyl)methyl]-5H-pyrido[3,2-b]indol-7-yl]propan-2-ol]",< 5
3,"[2H]C([2H])([2H])c1nnn(C)c1-c1cnc2c3c(OC)cc(S(C)(=O)=O)cc3n(C(c3ncccc3F)C3CCC(F)(F)CC3)c2c1 (single isomer, unassigned) [Example 214, 2-[(4,4-Difluorocyclohexyl)({7-methanesulfonyl-9-methoxy-3-[4-(^2H3)methyl-1-methyl-1H-1,2,3-triazol-5-yl]-5H-pyrido[3,2-b]indol-5-yl})methyl]-3-fluoropyridine]",< 5
4,"Cc1nnn(C)c1-c1cnc2c3ccc(C(C)(C)O)cc3n(C(c3cc(Cl)ccn3)C3CCOCC3)c2c1 (single isomer, unassigned) [Example 298]",< 25
5,"[2H]C([2H])([2H])c1onc(C)c1-c1cnc2c3ccc(C(C)(C)O)cc3n([C@H](c3ccccc3F)C3CCOCC3)c2c1 [Example 285, 2-{5-[(S)-(2-Fluorophenyl)(oxan-4-yl)methyl]-3-[5-(^2H3)methyl-3-methyl-1,2-oxazol-4-yl]-5H-pyrido[3,2-b]indol-7-yl}propan-2-ol]",< 5
6,"[2H]C([2H])([2H])c1nnn(C)c1-c1cnc2c3cc(F)c(C(C)(C)O)cc3n(C(c3cc(C)on3)C3CCOCC3)c2c1 (single isomer, unassigned) [Example 313]",< 5
7,"[2H]C([2H])([2H])Oc1nnn(C)c1-c1cnc2c3ccc(C(C)(C)O)cc3n([C@H](c3ccccc3)C3CCOCC3)c2c1 [Example 378, 2-{3-[4-(^2H3)Methoxy-1-methyl-1H-1,2,3-triazol-5-yl]-5-[(S)-oxan-4-yl(phenyl)methyl]-5H-pyrido[3,2-b]indol-7-yl}propan-2-ol]",< 5
8,"Cc1nnn(C)c1-c1cnc2c3c(F)cc(C(C)(C)O)cc3n(C(c3ccc(F)cc3F)C3CCOCC3)c2c1 (single isomer, unassigned) [Example 111, 2-{5-[(2,4-Difluorophenyl)(oxan-4-yl)methyl]-3-(dimethyl-1H-1,2,3-triazol-5-yl)-9-fluoro-5H-pyrido[3,2-b]indol-7-yl}propan-2-ol]",< 5
9,"Cc1noc(C)c1-c1cnc2c3ccc(C(C)(C)O)cc3n(C(c3ccccc3)c3cscn3)c2c1 (single isomer, unassigned) [Example 30, 2-[3-(Dimethyl-1,2-oxazol-4-yl)-5-[phenyl(1,3-thiazol-4-yl)methyl]-5H-pyrido[3,2-b]indol-7-yl]propan-2-ol]",< 5
10,"Cc1nnn(C)c1-c1cnc2c3ccc(C(C)(C)O)cc3n(C(c3cc(Cl)ccn3)C3CCOCC3)c2c1 (single isomer, unassigned) [Example 297]",< 5
11,"Cc1nnn(C)c1-c1cnc2c3cccc(S(C)(=O)=O)c3n([C@@H](CCC(F)(F)F)c3ccccc3)c2c1 [Example 377, 5-{6-Methanesulfonyl-5-[(1S)-4,4,4-trifluoro-1-phenylbutyl]-5H-pyrido[3,2-b]indol-3-yl}-1,4-dimethyl-1H-1,2,3-triazole]",< 5
12,[2H]c1c(C([2H])(C2CCOCC2)n2c3cc(C(C)(C)O)ccc3c3ncc(-c4c(C)noc4C([2H])([2H])[2H])cc32)noc1C([2H])([2H])[2H] (stereo not drawn) [Example 327],< 5
13,"Cc1noc(C)c1-c1cnc2c3ccc(C(C)(C)O)cc3n(C(c3ccccc3)C3(F)CCC3)c2c1 (single isomer, unassigned) [Example 33, 2-[3-(Dimethyl-1,2-oxazol-4-yl)-5-[(1-fluorocyclobutyl)(phenyl)methyl]-5H-pyrido[3,2-b]indol-7-yl]propan-2-ol]",< 5
14,Cc1nnn(C)c1-c1cnc2c3ccc(CS(C)(=O)=O)cc3n([C@@H](c3ncccc3F)C3CCOCC3)c2c1 [Example 333],< 5
15,"[2H]C([2H])([2H])c1nnn(C)c1-c1cnc2c3c(OC)cc(S(C)(=O)=O)cc3n(C(c3ncccc3F)C3CCOCC3)c2c1 (stereo not drawn) [Example 207, 3-Fluoro-2-[{7-methanesulfonyl-9-methoxy-3-[4-(^2H3)methyl-1-methyl-1H-1,2,3-triazol-5-yl]-5H-pyrido[3,2-b]indol-5-yl}(oxan-4-yl)methyl]pyridine]",< 5
16,"Cc1nnn(C)c1-c1cnc2c3ccc(C(C)(C)O)cc3n(C(c3c(F)cccc3F)C3CCOCC3)c2c1 (single isomer, unassigned) [Example 133, 2-{5-[(2,6-Difluorophenyl)(oxan-4-yl)methyl]-3-(dimethyl-1H-1,2,3-triazol-5-yl)-5H-pyrido[3,2-b]indol-7-yl}propan-2-ol]",< 5
